Source: publication PMC9646836, “Tetrahydroquinolinone derivatives exert antiproliferative effect on lung cancer cells through apoptosis induction” (Scientific Reports, 2022)

Assays:
[1] = system: HCT-116; test: MTT cell viability assay, HCT-116; format: cell-based, human; settings: mean ± SD, n = 3
Procedure: (§1) All new tetrahydroquinoline derivatives were assessed for cytotoxicity on a broad panel of cancer and normal cell lines, using the MTT assay. The half-inhibitory growth inhibitory concentration (IC50) values of each compound were calculated after 72 h of treatment and presented in Table 1. […] In this assay, the IC50 value of 5-FU and ETP was recorded as a positive control.
(§2) Non-small cell lung cancer cells A549 (CCL-185), breast cancer cells MCF-7 ([…]), hepatocarcinoma cells HepG2 ([…]), normal kidney cells HEK293 (CRL-1573), and osteosarcoma cells U-2 OS (HTB-96) were obtained from the American Type Culture Collection. HCT-116 cell line was kindly provided by prof. Bert Vogelstein (Johns Hopkins University, Howard Hughes Medical Institute, USA). The obtained A549 and MCF-7 cells were cultured in RPMI-1640 medium, HepG2 cells in Minimum Essential Medium Eagle medium, HEK-293 cells in Dulbecco’s Modified Eagle’s medium, and U-2 OS and HCT-116 cells in McCoy’s […] medium. All culture media were supplemented with 10% fetal bovine serum, 2 mM L-glutamine, and antibiotics (penicillin 62.6 µg/ml and streptomycin 40 µg/ml; Sigma-Aldrich). Both cancer and normal cells were cultured at 37 °C under a humidified atmosphere with 5% or 10% CO2 and routinely screened for Mycoplasma contamination. All materials and reagents were obtained from Corning unless stated otherwise.
(§3) The cytotoxic effect of the synthesized compounds was assessed by the MTT (4,5-dimethylthiazol-2-yl-2,5-diphenyltetrazoliumbromide; Sigma-Aldrich) assay. Briefly, the cells were seeded into 96-well transparent flat-bottom plates and allowed to attach overnight. On the next day, the cells were treated with compounds in the range of 0–50 µM for 72 h. Dimethyl sulfoxide (DMSO; Merck) and 5-fluorouracil (5-FU; Sigma-Aldrich) were used as a reference. After exposure to the compounds, 20 μl of the MTT solution at a concentration of 4 mg/ml was added to each well, and the plates were incubated again for 2–3 h at 37 °C. Next, the media in the wells was replaced with 100 μl DMSO to solubilize the formazan crystals. The absorbance was measured at 540 nm using an ASYS UVM340 microplate reader (Biochrom Ltd.). The IC50 value of the compounds was calculated using GraphPad Prism 9 software, based on the curves plotted with survival as a function of dose, averaged from three independent experiments.

[2] = system: A549; test: MTT cell viability assay, A549; format: cell-based, human; settings: Homo sapiens, A549, 72 h, mean ± SD, n = 3
Procedure: as §1, §2, §3

[3] = system: Hela; test: MTT cell viability assay, Hela; format: cell-based; settings: Homo sapiens, HeLa, 72 h, mean ± SD, n = 3
Procedure: as §1, §3

[4] = system: HEK293; test: MTT cell viability assay, HEK293 normal kidney cells; format: cell-based, human
Procedure: as §1, §2, §3

[5] = system: A549 cells; test: Colony formation assay; format: cell-based, human; settings: A549, 24 h pretreatment, 9 days culture, vs DMSO-treated control
Procedure: HCT-116 and A549 cells were seeded into six-well plates at a density of 500 cells per well and allowed to attach overnight. On the next day, the cells were pretreated with compound 4a at different concentrations or with 1% v/v DMSO for 24 h. After incubation, the cells were washed and cultured for 9 days. Next, the cells were fixed with methanol for 20 min and stained with 0.5% crystal violet (Sigma-Aldrich). Finally, the plates were dried overnight and imaged using a UVITEC Cambridge imaging system. Quantification was performed with ImageJ software. The surviving fraction was calculated as previously described. Each experiment was repeated three times.

[6] = system: A549 cells; test: Cell cycle progression (propidium iodide, flow cytometry); format: cell-based, human; settings: A549, IC50 concentration
Procedure: A549 and HCT-116 cells were incubated with the tested compounds at their IC50 concentrations for 24, 48, and 72 h. DMSO (1% v/v) was used as a reference (Sigma-Aldrich). After incubation, the cells were collected in trypsin, fixed with 75% ice-cold ethanol, and stored overnight at − 20 °C. Then, the cells were stained with 20 μg/ml propidium iodide (Sigma-Aldrich) and 50 μg/ml RNaseA (Thermo Fisher Scientific) in phosphate-buffered saline (PBS) for 30 min at room temperature (RT). The content of DNA in cells was determined by flow cytometry (Guava EasyCyte 8 cell sorter; Merck Millipore) using FlowJo software v10. Each experiment was repeated three times.

[7] = system: A549 cells; test: Apoptosis assay (Annexin V/7-AAD, flow cytometry); format: cell-based, human; settings: A549, IC50 concentration
Procedure: To further explain the mechanism by which 4a induced cell death in cancer cells, a flow cytometric analysis was performed by dual-staining the cells with 7-aminoactinomycin D (7-AAD) and Annexin V-fluorescein isothiocyanate (FITC). Annexin-V is a Ca^2+-dependent protein with potent affinity to phosphatidylserine. During early apoptosis, cells lose plasma membrane asymmetry through, for example, the externalization of phosphatidylserine. Once exposed to the outside of the cell surface, phosphatidylserine can be recognized by Annexin-V, and quantified. On the other hand, 7-AAD is a dye that cannot penetrate the intact cell membrane, and allows differentiating between necrotic and late apoptotic cells from living and early apoptotic cells. […] Treatment with the tested compound for 24 h caused 3.9-fold augmentation in apoptosis [early: 7-AAD (–), Annexin V-FITC (+); late: 7-AAD (+), Annexin V-FITC (+)] in comparison to the vehicle.
(§4) Cells were seeded in a 5-cm^2 dish at a density of 15 × 10^5 cells per dish and allowed to attach overnight at 37 °C. Then, compounds at IC50 concentrations were added to the medium. After 6, 24, and 48 h, the cells were harvested and washed with PBS. Subsequently, the cells were resuspended in the binding buffer and stained with Annexin V Alexa Fluor™ 488 conjugate (#A13201; Thermo Fisher Scientific) for the apoptosis assay and with CellEvent™ Caspase-3/7 Green Flow Cytometry Assay Kit (#C10427; Thermo Fisher Scientific) for the activation of caspase-3/7, as per the manufacturer’s instructions. After incubation, the samples were immediately analyzed using a Guava EasyCyte 8 cell sorter (Merck Millipore) and FlowJo software v10. Each experiment was repeated three times.

[8] = system: caspase-3/7 in A549 cells; test: Caspase-3/7 activation (flow cytometry); format: cell-based, human; settings: A549, IC50 concentration
Procedure: Apoptosis induction via both intrinsic and extrinsic pathways is mediated by caspase cascade events. Therefore, in this study, the ability of 4a to activate two effector caspases (caspase-3 and caspase-7) was evaluated by flow cytometry.
as §4

O=c1[nH]c2c(c(-c3ccccc3)c1Cc1cccc3ccccc13)CCCC2 [Compound 4a, 3-(1-naphthylmethyl)-4-phenyl-5,6,7,8-tetrahydro-1H-quinolin-2-one]
IC50 ([1]; 72 h): 12.2 ± 1.61 µM
IC50 ([1]; Homo sapiens, HCT-116, 72 h): ~13 µM
IC50 [2]: 11.3 ± 0.67 µM
IC50 [3]: > 50 µM
IC50 ([4]; Homo sapiens, HEK293, MTT, 72 h, normal kidney cells, mean ± SD, n = 3): 49 ± 2.21 µM
suppressive effect on human normal HEK293 kidney cells ([4]; tested concentrations, compared to A549 and HCT-116): almost no suppressive effect
number of observed colonies [5]: significantly decreased
fraction of cells at the G0/G1 phase [6]: time-dependent decrease
fraction of cells in sub-G0 phase [6]: concomitant increase
fraction of cells in G2 phase ([6]; 24 h (DMSO 3.2%)): 15.5%
fraction of cells in G2 phase ([6]; 48 h (DMSO 3.2%)): 33.8%
increase in the fraction of early-apoptotic cells [7-AAD (–), Annexin V-FITC (+)] ([7]; 6 h, vs DMSO control): 14.03 ± 1.74%
augmentation in apoptosis (early + late) ([7]; 24 h, vs vehicle): 3.9 fold
percentage of apoptotic cells ([7]; 48 h): significant increase
activation of caspase-3/7 ([8]; 24 and 48 h, vs vehicle): 3.9 ± 0.33 fold
increase in the activity of caspase-3/7 ([8]; 6 h): 2.32 ± 0.05 fold
